Laboratory results from patent US9573975B2, “Melanoma antigen peptide and uses thereof” (INSERM (INSTITUT NATIONAL DE LA SANTE ET DE LA RECHERCHE …, priority 2012, dated 2017).

Tested on: MELOE-1 specific CD4 T cell clones
Assay: Recognition of autologous DC loaded with antigen by CD4 T cell clones (TNF-α)
Type: cell-based, human
Experimental: FIG. 4: Class II epitopes are naturally processed from MELOE-1 whole antigen. Autologous DC, were loaded (before or after fixation) with MELOE-12-46 (1 μM) or, as a negative control, with Melan-A16-40L peptide (1 μM), and matured. T cell clones were then stimulated with DC at a ratio 1:1, during 5 h in presence of Brefeldin A, then stained with APC-conjugated anti-CD3 mAb, fixed with 4% paraformaldehyde, labeled with PE-conjugated anti-TNF-α mAb and analyzed by flow cytometry. Histograms illustrated the % of TNF-α producing cells among CD3 positive T cells.
Dendritic Cells Generation and Loading Monocytes were purified from PBMC of healthy donors by a CD14-enrichment kit, according the recommendations of the supplier (Stem Cell, France). Immature dendritic cells (iDC) were generated by culturing monocytes in RPMI supplemented with 20 mg/mL of human albumin, 1000 IU/mL of GM-CSF and 200 IU/mL of IL-4 for 5 days. Then, iDC were pulsed with the whole MELOE-1 (1 μM) protein or the modified Melan-A16-40 A27L as negative control (1 μM) and matured with 20 ng/mL of TNF-α and 50 μg/mL of PolyI:C for 4 hours at 37° C. Finally they were fixed for 1 minute with PBS/0.015% glutaraldehyde. Alternatively, iDC were first matured, fixed and then pulsed with antigens at the same concentration. […]

MSCVGYPDEATSREQFLPSEGAACPPWHPSERISSTLNDECWPASL [MELOE-1]
recognition by specific CD4 T cell clones of loaded autologous DC (DC loaded after DC fixation): only a weak recognition | reactivity of the four CD4 T cell clones against loaded autologous DC (iDC loaded with 1 μM in serum-free medium, matured, then fixed): reactive
